# Assay results as given in US20220378809A1, “SYNTHETIC COMPOSITION FOR BALANCING THE BILE ACID PROFILE IN THE INTESTINE” (GLYCOM A/S, priority 2019, published 2022).
# Columns and labels:
# [1] = test system: dextran sodium sulphate-induced colitis; conditions: mice; daily oral administration; cited from earlier work
# intestinal cells = conditions: cited from earlier work
# colonic microbiota = assay: In vitro intestinal system simulating the colon of a human infected with C. difficile, after Vancomycin treatment; conditions: end of washout period
# Text: An in vitro intestinal system is used to simulate the colon region in a human infected with C. difficile. The system is inoculated with fresh faecal samples from a healthy individual aged >65 years. The system is run for two weeks as a set up period to stabilise the system. The system is fed daily with a feed solution and with bile acids (primarily taurocholic acid and glycocholic acid). Afterwards, two different interventions are run in parallel for 4 weeks. • Intervention: daily addition of 2′-FL and LNnT (ratio 4:1 by weight) plus an antibiotic (Vancomycin) for seven days, followed by 2′-FL and LNnT (ratio 4:1 by weight) without antibiotic for the next 3 weeks (wash out period), • Control: an antibiotic (Vancomycin) for seven days, followed by no intervention for the next 3 weeks (wash out period). During the antibiotic treatment and washout periods, both the intervention and the control receive the same daily feed including bile acids. At three time points (end of set up period, end of antibiotic treatment, and end of wash out period), the microbiota community and bile acids are measured using 16S sequencing and HPLC-UV method, respectively. The in vitro intestinal system is run as in example 1 except that the intervention is a daily addition of 2′-FL plus an antibiotic (Vancomycin) for seven days, followed by 2′-FL alone for the next 3 weeks (wash out period). The control is as in example b 1. • Control: an antibiotic (Vancomycin) for seven days, followed by no intervention for the next 3 weeks (wash out period).
compound,measurement,setting,value
"C[C@H](CCC(=O)NCCS(=O)(=O)O)[C@H]1CC[C@H]2[C@@H]3[C@@H](O)C[C@@H]4C[C@H](O)CC[C@]4(C)[C@H]3CC[C@]12C [TUDCA, tauroursodeoxycholic acid]",severity of dextran sodium sulphate-induced colitis,[1],equally lowered the severity
"C[C@H](CCC(=O)O)[C@H]1CC[C@H]2[C@@H]3[C@H](O)C[C@@H]4C[C@H](O)CC[C@]4(C)[C@H]3CC[C@]12C [CDCA, chenodeoxycholic acid]",permeability of intestinal cells,intestinal cells,increased the permeability
same,release of proinflammatory cytokines,intestinal cells,increased
2′-fucosyllactose [2′-FL],colonic bile acid metabolism,colonic microbiota,re-established
same,restoration of the microbiota,colonic microbiota; 16S sequencing,restored
same,secondary bile acids,colonic microbiota; HPLC-UV,presence of the secondary bile acid deoxycholic acid (DCA)
same,primary bile acids (cholic acid (CA) and glyco-chenodeoxycholic acid (GCDCA)),"colonic microbiota; HPLC-UV, versus Vancomycin-only control",decrease in primary bile acids
"C[C@H](CCC(=O)NCC(=O)O)[C@H]1CC[C@H]2[C@@H]3[C@@H](O)C[C@@H]4C[C@H](O)CC[C@]4(C)[C@H]3CC[C@]12C [GUDCA, glycoursodeoxycholic acid]",severity of dextran sodium sulphate-induced colitis,[1],equally lowered the severity
